Columns and labels:
[1] = tested on: ApoL1-G1-induced T-REx-293 stable cell line; test: ApoL1-G1-induced cell viability assay (CellTiter-Glo); format: cell-based, human; conditions: for viability of ApoL1-G1 expressing cells: FIG. 1, 16 hours incubation, 0.08-10 μM, 1 ng/ml Doxycycline, luminescence live-cell count; for cell protective effect against ApoL1 toxicity: cell-based high throughput screening of 200,000 compounds, doxycycline-induced ApoL1-G1 T-REx-293 cells; for cell protective effect against ApoL1 toxicity / cell toxicity: 10 μM; for cell toxicity: high throughput screening, T-REx-293 cells
Description: ApoL1-G1-induced T-REx-293 stable cell line was generated by introducing Flag-tagged human G1 ApoL1 variant DNA (with African genomic sequence background) into the pcDNA4/TO plasmid, which yield expression upon Doxycycline addition. Cells were cultured in DMEM (Gibco, 41965-039) supplemented with 10% FBS, 1% penicillin-streptomycin at 37° C.
In order to estimate the effect of compounds 1, 3 and 7 on ApoL1-induced cells a cell viability assay was performed as following: cells were seeded at density 23K cells per well (96-well plate). Prior to seeding, wells were coated with Fibronectin (Biological industries, 03-090-1-05) for 1 hour at 37° C. On the following day, cells were switched to the same growth medium but containing 1 ng/ml Doxycycline (Sigma, D9891) with different concentrations of compounds 1, 3 or 7, for 16 hours. Then, cells were subjected to viability assay according to manufacturer's instructions, using CellTiter-Glo luminescent cell viability assay kit (Promega, G7570). The plate was read using Infinite 200 PRO for luminescence, which indicated live-cell count.
Induction of ApoL1-G1 variant by doxycycline causes toxicity in T-REx-293 cell line. In order to identify potential inhibitors of ApoL1 toxicity, a cell-based high throughput screening of 200,000 chemical compounds was performed. Cells were incubated with a compound solution (at 10 μM concentration).

T-REx-293 cells = test: cell toxicity assay for anti-proliferative effect (Cell-Titer Glo); format: cell-based; conditions: FIG. 2, 10 μM, 16 hours
Description: T-REx-293 cells were seeded at a density of 25K cells/well on fibronectin in 96-well plates and grown in DMEM with 10% FBS, 1% P/S medium. 24 hours post-seeding medium was changed to a fresh medium comprising the tested compounds (KS-1, KS-2, or KS-8) at a concentration of 5-10 μM. Non-treated cells were used as a negative control. After 16 hours one plate of the cells was taken for cell viability test using Cell-Titer Glo reagent (Promega). Cells on the other plate were imaged using Incucyte ZOOM system.

| SMILES | viability of ApoL1-G1 expressing cells [1] | cell protective effect against ApoL1 toxicity [1] | cell toxicity [1] | cell count determined via luminescence signal (relative light units, RLU) versus non-treated cells (T-REx-293 cells) |
| --- | --- | --- | --- | --- |
| Cc1c(C)n(Cc2ccc(Br)cc2)c(=O)n(Cc2ccc(Br)cc2)c1=O [Compound 1] | concentration dependent viability increase | highest cell protective effect | without exhibiting a significant cell toxicity | – |
| O=c1c2ccccc2n(Cc2ccc(Cl)cc2)c(=O)n1Cc1ccc(Cl)cc1 [Compound 3] | concentration dependent viability increase | highest cell protective effect | without exhibiting a significant cell toxicity | – |
| COc1ccccc1C(=O)Nc1cccc(N2CCC(NC(C)c3cnn(-c4ccccc4)c3)CC2)c1 (stereo not drawn) [Compound 7] | concentration dependent viability increase | highest cell protective effect | without exhibiting a significant cell toxicity | – |
| O=c1c2ccccc2n(Cc2ccncc2)c(=O)n1Cc1ccc(Cl)cc1 [KS-1] | – | – | – | lower |
| O=c1c2ccccc2n(Cc2ccc(Cl)cc2)c(=O)n1Cc1cccs1 [KS-2] | – | – | – | lower |
| O=c1c2ccccc2n(Cc2ccc(Cl)cc2)c(=O)n1C1CC=CC1 [KS-8] | – | – | – | lower |

From patent US12629376B2, “Composition for use in the treatment of ApoL1-associated disease” (RAMBAM MED-TECH LTD., priority 2020, dated 2026)
